This is an account of results in ChEMBL document CHEMBL4665643 (Bioorg Med Chem Lett, 2019).

Data set [1] has as its target Tyrosine-protein kinase JAK1 (Homo sapiens, UniProt P23458). The experiment in a line: biochemical.
Description: Inhibition of recombinant human JAK1 (854 to 1154 residues) expressed in insect cells using Y1-B as substrate incubated for 30 mins by microfluidic mobility shift assay
Data set [2] has as its target Protein kinase C alpha type (Homo sapiens) (UniProt P17252). In words: Inhibition of recombinant human His-tagged full length PKCalpha expressed in Escherichia coli expression system using Ser/Thr 07 as substrate at 0.1 uM incubated for 60 mins by Z'-lyte assay relative to control.
Data set [3] addresses T1, Mitogen-activated protein kinase 13 (Homo sapiens) (UniProt O15264).
T1 sequence (whole entry): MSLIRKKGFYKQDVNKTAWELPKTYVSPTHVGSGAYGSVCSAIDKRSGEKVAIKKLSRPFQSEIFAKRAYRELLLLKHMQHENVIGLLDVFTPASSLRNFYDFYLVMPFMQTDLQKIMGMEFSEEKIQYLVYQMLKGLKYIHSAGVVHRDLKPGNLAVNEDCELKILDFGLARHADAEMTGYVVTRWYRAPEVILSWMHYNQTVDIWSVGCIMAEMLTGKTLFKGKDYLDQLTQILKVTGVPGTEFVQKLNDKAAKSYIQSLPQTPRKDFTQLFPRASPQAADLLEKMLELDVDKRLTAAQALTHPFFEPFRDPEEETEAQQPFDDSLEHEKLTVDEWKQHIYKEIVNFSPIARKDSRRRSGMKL
The experiment in a line: Inhibition of recombinant human His-tagged full length p38 delta expressed in baculovirus expression system using Ser/Thr 03 as substrate at 0.1 uM incubated for 60 mins by Z'-Lyte assay relative to control.

The target in data set [4] is Proto-oncogene tyrosine-protein kinase ROS (Homo sapiens) (UniProt P08922). The experiment in a line: Inhibition of recombinant human GST-tagged […] ROS1 (1883 to 2347 residues) expressed in baculovirus expression system using Tyr 01 as substrate at 0.1 uM incubated for 60 mins by Z'-Lyte assay relative to control.
Proto-oncogene tyrosine-protein kinase ROS (Homo sapiens), sequence (P08922 whole entry, the tested form may be a part): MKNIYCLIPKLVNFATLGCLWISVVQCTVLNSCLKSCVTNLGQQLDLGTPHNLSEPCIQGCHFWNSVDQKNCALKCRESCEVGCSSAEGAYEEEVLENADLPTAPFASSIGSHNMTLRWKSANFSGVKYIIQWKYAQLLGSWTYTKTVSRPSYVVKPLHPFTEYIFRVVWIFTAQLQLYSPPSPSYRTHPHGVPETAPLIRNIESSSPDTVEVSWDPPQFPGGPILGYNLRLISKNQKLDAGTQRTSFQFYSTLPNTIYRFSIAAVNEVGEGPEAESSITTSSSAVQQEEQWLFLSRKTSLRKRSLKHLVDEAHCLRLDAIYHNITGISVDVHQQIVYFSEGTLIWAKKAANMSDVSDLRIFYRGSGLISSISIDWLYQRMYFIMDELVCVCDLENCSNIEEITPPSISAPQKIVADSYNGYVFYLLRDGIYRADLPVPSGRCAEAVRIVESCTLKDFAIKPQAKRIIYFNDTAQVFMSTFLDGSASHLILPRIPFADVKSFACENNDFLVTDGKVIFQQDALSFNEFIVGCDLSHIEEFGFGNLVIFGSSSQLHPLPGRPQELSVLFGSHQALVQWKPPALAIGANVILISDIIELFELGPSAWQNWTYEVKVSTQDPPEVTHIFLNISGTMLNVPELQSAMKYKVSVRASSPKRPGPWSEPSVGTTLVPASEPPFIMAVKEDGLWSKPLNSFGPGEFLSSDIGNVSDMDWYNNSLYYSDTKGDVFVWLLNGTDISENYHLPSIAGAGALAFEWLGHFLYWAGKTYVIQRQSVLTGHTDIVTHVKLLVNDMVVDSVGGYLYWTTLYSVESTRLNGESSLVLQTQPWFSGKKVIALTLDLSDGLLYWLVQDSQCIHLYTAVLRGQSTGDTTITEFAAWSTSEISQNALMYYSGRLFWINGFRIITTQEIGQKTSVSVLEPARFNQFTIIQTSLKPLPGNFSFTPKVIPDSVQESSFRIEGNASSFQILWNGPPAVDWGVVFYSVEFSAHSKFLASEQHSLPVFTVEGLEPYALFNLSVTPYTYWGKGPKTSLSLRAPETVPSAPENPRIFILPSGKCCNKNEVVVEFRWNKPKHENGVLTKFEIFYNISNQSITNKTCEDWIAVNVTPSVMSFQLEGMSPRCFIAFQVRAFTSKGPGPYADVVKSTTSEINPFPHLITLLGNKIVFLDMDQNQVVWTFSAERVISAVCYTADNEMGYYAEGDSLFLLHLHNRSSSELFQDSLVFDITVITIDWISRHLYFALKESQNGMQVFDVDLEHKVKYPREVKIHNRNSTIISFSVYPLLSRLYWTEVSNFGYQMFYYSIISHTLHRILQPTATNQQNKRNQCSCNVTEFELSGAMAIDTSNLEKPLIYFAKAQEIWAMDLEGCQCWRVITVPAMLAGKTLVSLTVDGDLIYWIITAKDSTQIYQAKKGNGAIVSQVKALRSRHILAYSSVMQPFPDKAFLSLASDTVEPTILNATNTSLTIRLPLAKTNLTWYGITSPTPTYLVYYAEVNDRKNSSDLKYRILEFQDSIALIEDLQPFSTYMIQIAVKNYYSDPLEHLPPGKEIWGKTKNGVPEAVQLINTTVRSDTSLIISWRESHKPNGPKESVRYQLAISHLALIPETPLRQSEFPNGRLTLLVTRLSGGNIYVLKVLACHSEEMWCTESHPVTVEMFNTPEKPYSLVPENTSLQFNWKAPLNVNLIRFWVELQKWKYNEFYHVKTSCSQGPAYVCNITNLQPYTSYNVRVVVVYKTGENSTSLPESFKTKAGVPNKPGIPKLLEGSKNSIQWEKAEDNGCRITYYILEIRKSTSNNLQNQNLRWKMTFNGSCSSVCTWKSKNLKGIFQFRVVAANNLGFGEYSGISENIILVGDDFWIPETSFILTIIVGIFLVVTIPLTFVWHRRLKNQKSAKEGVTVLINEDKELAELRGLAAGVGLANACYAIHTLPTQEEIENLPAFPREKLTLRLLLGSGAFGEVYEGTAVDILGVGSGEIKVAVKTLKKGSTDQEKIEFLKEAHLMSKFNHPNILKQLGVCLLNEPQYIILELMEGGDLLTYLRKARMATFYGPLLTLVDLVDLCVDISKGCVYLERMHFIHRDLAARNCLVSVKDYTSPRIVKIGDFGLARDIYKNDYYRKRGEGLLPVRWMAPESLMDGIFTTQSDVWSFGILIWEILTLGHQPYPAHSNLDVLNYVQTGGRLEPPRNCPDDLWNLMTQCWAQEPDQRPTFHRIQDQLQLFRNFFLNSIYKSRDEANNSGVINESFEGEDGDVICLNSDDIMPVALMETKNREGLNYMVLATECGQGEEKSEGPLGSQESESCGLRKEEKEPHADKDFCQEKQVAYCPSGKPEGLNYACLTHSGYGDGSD
Data set [5] addresses Tyrosine-protein kinase SYK (Homo sapiens) (UniProt P43405). The experiment in a line: Inhibition of recombinant human N-terminalGST-tagged full length SYK expressed in baculovirus expression system using Tyr 02 as substrate at 0.1 uM incubated for 60 mins by Z'-Lyte assay relative to control.
The nature of the next data set: in vitro. The conditions noted are these: dog, MDCK.
For data set [6], the target named is Serine/threonine-protein kinase pim-2 (Homo sapiens) (UniProt Q9P1W9). The experiment in a line: Inhibition of recombinant human GST-tagged full length PIM2 expressed in baculovirus expression system using Ser/Thr 07 as substrate at 0.1 uM incubated for 60 mins by Z'-lyte assay relative to control.
Serine/threonine-protein kinase pim-2 (Homo sapiens), sequence (Q9P1W9 whole entry, looked up, the tested form may be a part): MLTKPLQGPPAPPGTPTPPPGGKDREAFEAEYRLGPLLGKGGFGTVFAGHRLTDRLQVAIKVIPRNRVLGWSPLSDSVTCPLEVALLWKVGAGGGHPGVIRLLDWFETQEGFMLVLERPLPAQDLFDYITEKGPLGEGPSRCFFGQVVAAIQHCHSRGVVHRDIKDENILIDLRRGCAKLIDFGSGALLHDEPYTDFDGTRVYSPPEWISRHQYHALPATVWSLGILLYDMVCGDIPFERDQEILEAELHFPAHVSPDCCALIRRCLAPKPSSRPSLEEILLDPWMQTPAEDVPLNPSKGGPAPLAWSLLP
Data set [7] has as its system RAF proto-oncogene serine/threonine-protein kinase (Homo sapiens), P04049 [Y340D,Y341D]. In words: Inhibition of recombinant human GST-tagged RAF1 Y340D/Y341D double mutant (306 to 648 residues) expressed in baculovirus expression system using Ser/Thr 03 as substrate at 0.1 uM incubated for 60 mins by Z'-Lyte assay relative to control.
Data set [8] concerns the target Angiopoietin-1 receptor (Homo sapiens) (UniProt Q02763). The experiment in a line: Inhibition of recombinant human GST-tagged TIE2 (817 to 1101 residues) expressed in baculovirus expression system using […] as substrate at 0.1 uM incubated for 60 mins by Z'-Lyte assay relative to control.
A short description of data set [9]: Lipophilicity, logD of compound. It counts as physicochemical. The conditions noted are these: octanol/water.
In data set [10] the target is Casein kinase I isoform epsilon (Homo sapiens) (UniProt P49674). The experiment in a line: Inhibition of recombinant human His-tagged full length CK1epsilon expressed in baculovirus expression system using Ser/Thr 11 as substrate at 0.1 uM incubated for 60 mins by Z'-Lyte assay relative to control.
The target of data set [11] is T2, Mitogen-activated protein kinase 12 (Homo sapiens) (UniProt P53778).
T2 sequence (whole entry): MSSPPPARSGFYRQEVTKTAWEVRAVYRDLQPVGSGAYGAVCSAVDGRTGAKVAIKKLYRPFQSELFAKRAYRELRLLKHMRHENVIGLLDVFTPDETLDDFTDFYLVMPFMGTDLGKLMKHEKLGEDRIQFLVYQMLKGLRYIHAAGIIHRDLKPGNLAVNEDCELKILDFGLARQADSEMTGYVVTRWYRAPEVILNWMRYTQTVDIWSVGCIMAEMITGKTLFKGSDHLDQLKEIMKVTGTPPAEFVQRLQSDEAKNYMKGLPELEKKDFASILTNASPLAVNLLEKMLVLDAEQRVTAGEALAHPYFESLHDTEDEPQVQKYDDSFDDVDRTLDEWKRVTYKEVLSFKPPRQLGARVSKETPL
In words: Inhibition of recombinant human His-tagged full length p38 gamma expressed in baculovirus expression system using Ser/Thr 03 as substrate at 0.1 uM incubated for 60 mins by Z'-Lyte assay relative to control.

For data set [12], the target named is T3, Tyrosine-protein kinase JAK2 (Homo sapiens, UniProt O60674).
T3 sequence (O60674 whole entry, the tested form may be a part): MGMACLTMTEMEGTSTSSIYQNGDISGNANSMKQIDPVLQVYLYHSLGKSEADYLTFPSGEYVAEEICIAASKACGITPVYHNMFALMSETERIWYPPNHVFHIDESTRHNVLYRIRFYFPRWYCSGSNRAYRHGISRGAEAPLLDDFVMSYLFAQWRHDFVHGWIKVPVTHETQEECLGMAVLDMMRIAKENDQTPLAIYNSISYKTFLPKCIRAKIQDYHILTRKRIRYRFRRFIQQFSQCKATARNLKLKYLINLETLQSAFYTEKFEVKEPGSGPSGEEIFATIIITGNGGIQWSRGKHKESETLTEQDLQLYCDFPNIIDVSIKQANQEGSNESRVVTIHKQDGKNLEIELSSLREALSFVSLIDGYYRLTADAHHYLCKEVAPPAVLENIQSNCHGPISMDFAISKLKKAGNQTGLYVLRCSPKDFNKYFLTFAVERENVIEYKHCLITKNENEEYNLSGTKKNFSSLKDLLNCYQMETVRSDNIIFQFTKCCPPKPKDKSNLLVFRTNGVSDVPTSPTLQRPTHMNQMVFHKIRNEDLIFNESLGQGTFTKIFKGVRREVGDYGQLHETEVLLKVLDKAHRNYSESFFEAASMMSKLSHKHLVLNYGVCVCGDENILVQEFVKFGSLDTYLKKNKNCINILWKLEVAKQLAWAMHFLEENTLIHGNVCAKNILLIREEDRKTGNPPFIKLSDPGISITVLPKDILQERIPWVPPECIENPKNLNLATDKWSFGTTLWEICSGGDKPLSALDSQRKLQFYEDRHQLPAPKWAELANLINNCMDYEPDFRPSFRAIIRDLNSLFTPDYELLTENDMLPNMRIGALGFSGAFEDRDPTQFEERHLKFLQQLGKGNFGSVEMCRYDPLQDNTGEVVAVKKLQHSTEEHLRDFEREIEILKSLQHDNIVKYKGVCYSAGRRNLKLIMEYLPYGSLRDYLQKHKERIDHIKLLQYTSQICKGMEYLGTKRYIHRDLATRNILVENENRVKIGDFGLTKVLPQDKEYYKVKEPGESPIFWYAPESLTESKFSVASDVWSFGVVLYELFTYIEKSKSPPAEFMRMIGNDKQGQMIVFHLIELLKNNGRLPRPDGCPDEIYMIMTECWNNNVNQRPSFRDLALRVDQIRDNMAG
Description: Inhibition of recombinant human JAK2 (812 to 1132 residues) expressed in insect cells using Y1-B as substrate incubated for 30 mins by microfluidic mobility shift assay
The target of data set [13] is Leucine-rich repeat serine/threonine-protein kinase 2 (Homo sapiens, UniProt Q5S007). The experiment in a line: Inhibition of recombinant human GST-tagged LRRK2 (970 to 2527 residues) expressed in baculovirus expression system using LRRKtide as substrate incubated for 60 mins by Adapta assay.
In data set [14] the target is Inhibitor of nuclear factor kappa-B kinase subunit alpha (Homo sapiens) (UniProt O15111). In words: Inhibition of recombinant human His-tagged full length IKKalpha expressed in baculovirus expression system at 0.1 uM incubated for 60 mins by Adapta assay relative to control.
In data set [15] the target is T3, Tyrosine-protein kinase JAK2. In words: Inhibition of recombinant human GST-tagged JAK2 (809 to 1153 residues) expressed in baculovirus expression system using Tyr 06 as substrate at 0.1 uM incubated for 60 mins by Z'-lyte assay relative to control.
Data set [16] concerns the target Serine/threonine-protein kinase Sgk1 (Homo sapiens) (UniProt O00141). In words: Inhibition of recombinant human GST-tagged […] SGK1 (60 to 431 residues) expressed in baculovirus expression system using Ser/Thr 06 as substrate at 0.1 uM incubated for 60 mins by Z'-Lyte assay relative to control.
The target in data set [17] is Tyrosine-protein kinase receptor UFO (Homo sapiens) (UniProt P30530). The experiment in a line: Inhibition of recombinant human GST-tagged full length AXL expressed in insect expression system using Tyr 06 as substrate at 0.1 uM incubated for 60 mins by Z'-Lyte assay relative to control.

SMILES strings stand for the structures.

RAF proto-oncogene serine/threonine-protein kinase (Homo sapiens), P04049 [Y340D,Y341D], sequence (P04049 whole entry Y340D/Y341D, the tested form may be a part): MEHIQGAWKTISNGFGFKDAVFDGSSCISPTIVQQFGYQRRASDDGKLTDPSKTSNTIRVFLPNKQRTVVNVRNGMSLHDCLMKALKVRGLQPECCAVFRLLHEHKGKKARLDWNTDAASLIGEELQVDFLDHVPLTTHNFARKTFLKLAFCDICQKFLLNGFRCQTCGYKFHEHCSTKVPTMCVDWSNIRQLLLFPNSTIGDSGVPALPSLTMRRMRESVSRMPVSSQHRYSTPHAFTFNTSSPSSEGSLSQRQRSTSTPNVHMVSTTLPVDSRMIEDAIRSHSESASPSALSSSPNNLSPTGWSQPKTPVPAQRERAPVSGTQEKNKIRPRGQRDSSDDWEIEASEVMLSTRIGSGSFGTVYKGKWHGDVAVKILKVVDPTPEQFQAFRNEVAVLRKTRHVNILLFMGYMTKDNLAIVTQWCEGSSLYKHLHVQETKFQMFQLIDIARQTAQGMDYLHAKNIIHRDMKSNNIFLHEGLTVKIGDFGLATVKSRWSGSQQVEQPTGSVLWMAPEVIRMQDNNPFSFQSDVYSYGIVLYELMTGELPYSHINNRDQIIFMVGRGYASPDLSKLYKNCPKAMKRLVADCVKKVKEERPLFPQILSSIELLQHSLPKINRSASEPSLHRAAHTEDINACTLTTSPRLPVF
Description for in vitro: Efflux ratio of apparent permeability basolateral to apical over apical to basolateral side in MDCK cells at 10 uM incubated upto 180 mins by LC/MS-MS analysis

Take `O=C(Nc1c[nH]nc1-c1cc(Cl)ccc1OC(F)F)c1cnn2cccnc12`: the Ki was 0.21 nM in data set [1] and 0.071 nM in data set [12]. Besides, the inhibition in [2] came out at 12%; in data set [3], 10%; in data set [4], 38%; in [5], 8%; in data set [6] it was 18%; in data set [7], 9%. Besides, the figures for the inhibition in [8], in data set [10] and in data set [11] were 12%, 5% and -1%, respectively. Further, the efflux ratio at 3 h, 10 µM in the data set “in vitro” amounted to 1.1. The compound also displayed a logD in data set [9] of 3.2. Moreover, the IC50 in data set [13] worked out at 18 nM.
Regarding `O=C(Nc1c[nH]nc1-c1cc2ccccc2cc1OC(F)F)c1cnn2cccnc12`, the inhibition in data set [2] is 1%; in [3], 6%; in [4], 29%; in [5] it was 6%; in [14], 6%; in data set [6], -1%. The inhibition was 97% in data set [15]; 7% in data set [7]; -4% in data set [16]; 6% in [10]; 5% in data set [11]; 0% in [17]. In addition, in “in vitro”, the efflux ratio at 3 h, 10 µM is 1.2. The logD in [9] was found to be 3.5. The IC50 in data set [13] was 180 nM.
For `Cn1cc(NC(=O)c2cnn3cccnc23)c(-c2cc(Cl)ccc2OC(F)F)n1`, the values for the Ki in data set [1] and in [12] were 0.21 nM and 0.088 nM, respectively. Moreover, the inhibition is 11% in data set [2]; 0% in data set [3]; 62% in [4]; 7% in data set [5]; -3% in [14]; 2% in data set [6]. The inhibition in data set [15] was 98%; in [7], 3%; in [8] it was 3%; in [16] it was 7%; in [10] it was -1%; in data set [11] it was 4%. For the same compound, the inhibition in [17] was 5%. Moreover, the efflux ratio at 3 h, 10 µM in the data set “in vitro” was 0.55. The compound further registered a pH-dependent lipophilicity (logD) in data set [9] of 3.
